Measured values taken from patent US20110281949A1, “METHODS AND COMPOSITIONS FOR TREATING NEURONAL DAMAGE AND MODULATING TRANSIENT RECEPTOR POTENTIAL CHANNELS” (priority 2008, published 2011).
Entries after “also recorded” stand apart in the source; their conditions may differ. Where two headings read alike, the source gives them in different places.

Assays:
TRPL channels = target: T1, TRPL channels (Drosophila melanogaster, UniProt P48994); test: Whole-cell patch clamp of TRPL channels expressed in S2 cells; conditions: for Effect on TRPL-mediated current / Effect on current when TRPL channels were not expressed (control): IX 500 μM, XVII 5 mM; for Effect on TRPL-mediated current: XIII 3 mM, XIV 1 mM, XII 2 mM, XV up to 5 mM, X 5 mM, XVI 5 mM, XI 10 mM; for TRPL Activation/Inhibition: TRPL expressed in S2 cells; for Effect on current when TRPL channels were not expressed (control): S2 cells without TRPL expression
T1 sequence (P48994 1-1124): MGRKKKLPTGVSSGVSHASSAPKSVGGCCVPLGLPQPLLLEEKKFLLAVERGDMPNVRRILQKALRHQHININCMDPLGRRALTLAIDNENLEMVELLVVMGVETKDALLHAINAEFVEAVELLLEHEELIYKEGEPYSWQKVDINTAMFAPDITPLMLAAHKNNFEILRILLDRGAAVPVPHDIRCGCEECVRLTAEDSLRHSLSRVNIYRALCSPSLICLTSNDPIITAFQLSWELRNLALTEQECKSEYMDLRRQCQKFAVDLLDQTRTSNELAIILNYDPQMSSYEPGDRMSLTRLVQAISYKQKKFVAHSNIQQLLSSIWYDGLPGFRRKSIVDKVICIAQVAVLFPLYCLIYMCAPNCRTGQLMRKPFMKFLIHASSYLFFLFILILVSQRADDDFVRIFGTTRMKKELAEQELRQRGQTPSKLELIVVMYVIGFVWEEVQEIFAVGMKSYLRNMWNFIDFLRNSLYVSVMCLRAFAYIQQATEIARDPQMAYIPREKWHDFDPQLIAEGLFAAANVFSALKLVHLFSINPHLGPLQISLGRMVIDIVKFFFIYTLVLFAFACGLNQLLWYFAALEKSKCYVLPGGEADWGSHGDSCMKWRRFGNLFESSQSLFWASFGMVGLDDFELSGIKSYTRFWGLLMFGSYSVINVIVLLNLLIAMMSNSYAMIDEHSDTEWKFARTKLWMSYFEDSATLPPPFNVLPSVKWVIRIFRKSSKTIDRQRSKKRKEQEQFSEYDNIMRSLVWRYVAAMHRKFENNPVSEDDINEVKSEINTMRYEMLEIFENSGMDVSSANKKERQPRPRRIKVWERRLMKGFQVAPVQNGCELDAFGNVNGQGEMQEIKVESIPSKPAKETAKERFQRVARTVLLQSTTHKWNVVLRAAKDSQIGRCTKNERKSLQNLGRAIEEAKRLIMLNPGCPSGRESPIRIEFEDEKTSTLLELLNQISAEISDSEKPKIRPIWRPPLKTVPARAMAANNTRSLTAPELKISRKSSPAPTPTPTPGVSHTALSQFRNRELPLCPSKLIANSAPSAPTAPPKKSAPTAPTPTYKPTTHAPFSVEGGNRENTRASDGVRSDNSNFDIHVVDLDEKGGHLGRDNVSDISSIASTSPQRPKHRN
Procedure: Schneider 2 cells were grown in 25 cm^2 flasks at 25° C. in Schneider medium (Beit HaEmek biological industries, Israel) supplemented with 10% fetal bovine serum (FBS) and 1% pen-strep reagent.
24 hours prior to the experiment, 500 μM CuSO4 was added to the medium of the S2 cells to induce expression of the channels. […] Currents were recorded at room temperature using borosilicate patch pipettes of 5-8 MΩ and an Axopatch 1D (Molecular Devices, Inc.) voltage-clamp amplifier. […] Currents were filtered using the 8-pole low pass Bessel filter of the patch-clamp amplifier at 5 kHz and sampled at 20 kHz. To measure I-V curves with minimal distortions, only cells with low (<10 MΩ) series resistance were used, and series resistance was compensated to ˜80%.
For S2 cells, the extracellular solution contained in mM: 150 NaCl, 5 KCl, 4 MgCl2, 10 TES, 25 proline, 5 alanine and 0.5 EGTA. The intracellular solution contained in mM: 130 K-gluconate, 10 TES, 2 MgCl2, 4 Mg-ATP and 0.4 Na-GTP. […] All solutions were titrated to pH 7.2. Cells were perfused via a BPS-8 valve control system (Scientific Instruments) at a rate of ˜30 chamber volumes per minute. Chemicals were applied via the perfusion system.

TRPM7 [1] = target: T2, TRPM7 (Mus musculus, UniProt Q923J1); test: Whole-cell patch clamp of TRPM7 expressed in HEK cells; format: cell-based, mammalian; set-up: expressed in transfected cells; host or cells: HEK / HEK293 cells, transient, TransIT reagent (Mirus); conditions: for Effect on TRPM7-mediated current: HEK cells expressing TRPM7, IX 500 μM
Procedure: Human embryonic kidney (HEK) cells were grown in 25 cm^2 flasks at 37° C. in Dulbecco's Modified Eagle's Medium (DMEM) (Beit Haemek biological industries, Israel) supplemented with 10% FBS, 1% pen-strep and 1% L-Glutamine. TRPM7 (GenBank accession number NM—021450; SEQ ID No: 19; provided by David Clapham) and pIRES-eGFP were transiently expressed using TransIT™ reagent (Mirus).
Cells were seeded on polylysine-coated plates at a confluence of 25%, 24-72 hours prior to the experiment. […] Whole-cell, patch-clamp recordings were performed as described (Parnas et al, 2007). Currents were recorded at room temperature using borosilicate patch pipettes of 5-8 MΩ and an Axopatch 1D (Molecular Devices, Inc.) voltage-clamp amplifier. Voltage-clamp pulses were generated and data captured using a Digidata 1322A interfaced to a computer running the pClamp 9.2 software (Axon Instruments, Inc.). Currents were filtered using the 8-pole low pass Bessel filter of the patch-clamp amplifier at 5 kHz and sampled at 20 kHz. To measure I-V curves with minimal distortions, only cells with low (<10 MΩ) series resistance were used, and series resistance was compensated to ˜80%.
For HEK cells, the extracellular solution contained in mM: 140 NaCl, 2.8 KCl, 2 CaCl2, 1 MgCl2, HEPES and 10 glucose. The intracellular solution contained in mM: 140 Cs-Aspartate, 8 NaCl, 10 EGTA and 10 HEPES. All solutions were titrated to pH 7.2. Cells were perfused via a BPS-8 valve control system (Scientific Instruments) at a rate of ˜30 chamber volumes per minute. Chemicals were applied via the perfusion system.

TRPV3 = conditions: literature; cited from earlier work
TRPM7 [2] = target: T2, TRPM7; conditions: 500 μM
TRPM7 [3] = conditions: 500 μM
TRPM7 [4] = target: T2, TRPM7; test: cell-based; conditions: read-out: Inhibition of total presynaptic strength (S)
TRP = target: T3, TRP (Drosophila melanogaster, UniProt P19334); test: Light-induced current (LIC) in photoreceptor cells of wild-type flies (native TRP)
T3 sequence (P19334 1-1275): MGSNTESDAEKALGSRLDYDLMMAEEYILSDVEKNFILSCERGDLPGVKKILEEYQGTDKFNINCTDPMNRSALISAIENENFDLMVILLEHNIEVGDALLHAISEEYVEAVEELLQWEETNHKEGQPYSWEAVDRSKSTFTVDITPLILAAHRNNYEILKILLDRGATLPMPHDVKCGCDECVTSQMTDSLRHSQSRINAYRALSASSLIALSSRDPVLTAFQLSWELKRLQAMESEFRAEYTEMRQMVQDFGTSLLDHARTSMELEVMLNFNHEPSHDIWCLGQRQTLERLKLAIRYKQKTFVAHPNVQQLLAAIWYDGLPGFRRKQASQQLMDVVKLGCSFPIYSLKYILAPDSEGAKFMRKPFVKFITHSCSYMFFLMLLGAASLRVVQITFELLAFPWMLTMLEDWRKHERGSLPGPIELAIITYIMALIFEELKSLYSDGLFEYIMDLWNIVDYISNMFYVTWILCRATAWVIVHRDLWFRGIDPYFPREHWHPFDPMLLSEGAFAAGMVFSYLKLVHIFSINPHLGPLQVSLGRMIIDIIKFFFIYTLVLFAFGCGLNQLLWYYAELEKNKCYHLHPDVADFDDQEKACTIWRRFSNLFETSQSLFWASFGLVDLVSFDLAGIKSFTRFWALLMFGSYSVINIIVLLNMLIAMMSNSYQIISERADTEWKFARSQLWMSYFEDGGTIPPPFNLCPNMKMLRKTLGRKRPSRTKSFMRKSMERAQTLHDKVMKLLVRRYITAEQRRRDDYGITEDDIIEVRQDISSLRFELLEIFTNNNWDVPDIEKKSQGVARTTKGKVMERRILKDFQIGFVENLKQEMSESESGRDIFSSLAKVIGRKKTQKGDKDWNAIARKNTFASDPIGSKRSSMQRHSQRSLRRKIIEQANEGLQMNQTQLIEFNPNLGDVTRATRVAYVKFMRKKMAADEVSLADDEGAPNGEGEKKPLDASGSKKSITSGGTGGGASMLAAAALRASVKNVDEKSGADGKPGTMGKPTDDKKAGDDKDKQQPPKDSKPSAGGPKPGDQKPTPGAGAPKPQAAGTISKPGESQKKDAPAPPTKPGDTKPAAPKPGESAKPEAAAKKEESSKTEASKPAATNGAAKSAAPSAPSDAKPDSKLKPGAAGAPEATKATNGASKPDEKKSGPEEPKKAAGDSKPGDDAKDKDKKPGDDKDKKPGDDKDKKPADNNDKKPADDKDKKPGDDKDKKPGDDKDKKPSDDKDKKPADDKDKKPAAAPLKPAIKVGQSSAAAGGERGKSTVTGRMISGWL
Procedure: Drosophila white-eyed flies of the following strains were used: wt and trp^P343. Flies were raised at 24° C. in a 12 h light/dark cycle.
A tungsten trans-illumination light (12 V, 100 W halogen lamp, in conjunction with a Schott OG 590 orange edge filter and a KG3 heat filter) provided illumination for stimulation of the photoreceptors in all experiments. Stimulating light was applied via a condenser lens (Carl Zeiss Microlmaging, Inc.) and was attenuated by neutral density filters. The maximal luminous intensity of the unattenuated orange light at the level of the ommatidia was 3.2 mW/cm^2.
Dissociated Drosophila ommatidia were prepared from newly emerged flies (<1 h after eclosion) that were kept in the dark 12-18 h before the experiment. Whole-cell, patch-clamp recordings were performed as described in Peretz et al, 1994. Currents were recorded at 21° C. using borosilicate patch pipettes of 8-10 MO and an Axopatch 200B™ (Molecular Devices, Inc.) voltage-clamp amplifier. Voltage-clamp pulses were generated and data captured using a Digidata 1200™ interfaced to a computer running pClamp 8.0 software (Axon Instruments, Inc.). Currents were filtered using the 8-pole low pass Bessel filter of the patch-clamp amplifier at 5 kHz and sampled at 10 kHz. Series resistance was compensated to ˜80%. […]

native TRPL channels = target: T4, native TRPL channels (Drosophila melanogaster, UniProt P48994); test: Light-induced current (LIC) in isolated ommatidia of trp^P343 mutant (native TRPL); format: cell-based; conditions: trp^P343 mutant photoreceptor cells, 500 μM
T4 construct: from tissue; host or cells: dissociated ommatidia of newly emerged white-eyed trpP343 flies
T4 sequence (P48994 1-1124): T1 sequence (P48994 1-1124)
Text: Series resistance was compensated to ˜80%.
All solutions were titrated to pH 7.15. […] All solutions were titrated to pH 7.2. […] Chemicals were applied via the perfusion system.

TRPM8 = TRPM8 (Homo sapiens, UniProt Q7Z2W7); conditions: literature (Vogt-Eisele 2007); cited from earlier work
closed head injury = test: Mouse model of closed head injury, Neurological Severity Score (NSS); format: in vivo; conditions: subcutaneous 0.751 μg/gr body weight 15 min after injury, up to 27 days
Text: Brain injury is known to disrupt the blood-brain barrier and to induce edema and release auto-destructive factors that produce delayed neuronal damage and neuronal cell death. An experimental model of […] (CHI) in the rat and mouse has been developed and studied mechanistically (Beni-Adani et al 2001; Chen et al 1996). In the present study, CHI was induced under ether anesthesia by allowing a metal rod (333 g) to fall over the exposed skull covering the left hemisphere in the midcornal plane of a 35-45 g Mouse. […] Neurobehavioral evaluations were performed over the next 27 d.
A Neurological Scoring System (NSS) was used to determine ability to perform 10 different behavioral tasks, involving motor ability, balance, and alertness of the mice (Table 4). One point is assigned for failing to perform each task; thus, a normal uninjured mouse scores 0. Injury severity is defined by initial NSS, which is evaluated 1 h post-CHI and referred to as “NSS1.” This value is also a reliable predictor of clinical outcome, with fatal or near-fatal injury corresponding to NSS1 of 7-8; moderate injury to NSS1 of 5-6, and mild injury to NSS1 of <4.

TRPA1 = TRPA1 (Homo sapiens, UniProt O75762); conditions: irreversible, by covalent modification; cited from earlier work
Chain of TRPA1 (O75762 whole entry, species assumed): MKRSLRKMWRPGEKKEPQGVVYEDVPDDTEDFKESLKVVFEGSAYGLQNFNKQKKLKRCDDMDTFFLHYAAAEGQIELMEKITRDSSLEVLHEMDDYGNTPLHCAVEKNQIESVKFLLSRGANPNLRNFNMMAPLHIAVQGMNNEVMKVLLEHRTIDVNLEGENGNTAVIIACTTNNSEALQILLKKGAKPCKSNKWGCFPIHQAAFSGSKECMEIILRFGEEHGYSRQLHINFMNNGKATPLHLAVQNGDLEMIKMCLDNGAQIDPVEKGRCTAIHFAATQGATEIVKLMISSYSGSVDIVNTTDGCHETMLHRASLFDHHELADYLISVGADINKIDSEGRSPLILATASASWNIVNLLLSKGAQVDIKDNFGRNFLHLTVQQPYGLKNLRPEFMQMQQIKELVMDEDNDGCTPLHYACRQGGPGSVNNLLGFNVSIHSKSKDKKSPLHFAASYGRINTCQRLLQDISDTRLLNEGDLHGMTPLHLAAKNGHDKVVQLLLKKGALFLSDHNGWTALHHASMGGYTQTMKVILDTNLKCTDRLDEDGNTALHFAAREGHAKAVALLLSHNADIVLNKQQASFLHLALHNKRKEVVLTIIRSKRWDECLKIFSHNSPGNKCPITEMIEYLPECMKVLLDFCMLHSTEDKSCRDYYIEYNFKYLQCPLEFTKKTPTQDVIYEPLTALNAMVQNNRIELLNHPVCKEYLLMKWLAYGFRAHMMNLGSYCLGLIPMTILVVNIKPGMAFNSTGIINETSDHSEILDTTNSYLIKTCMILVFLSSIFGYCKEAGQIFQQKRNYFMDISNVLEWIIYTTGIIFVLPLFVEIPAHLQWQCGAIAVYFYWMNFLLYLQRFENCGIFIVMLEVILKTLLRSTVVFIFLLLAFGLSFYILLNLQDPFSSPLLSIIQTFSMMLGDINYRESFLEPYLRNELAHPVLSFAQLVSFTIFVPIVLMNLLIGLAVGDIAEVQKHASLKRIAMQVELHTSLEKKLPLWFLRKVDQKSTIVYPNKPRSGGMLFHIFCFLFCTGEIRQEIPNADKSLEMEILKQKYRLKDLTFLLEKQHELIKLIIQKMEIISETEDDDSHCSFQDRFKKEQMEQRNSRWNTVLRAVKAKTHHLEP

T2 sequence (Q923J1 whole entry): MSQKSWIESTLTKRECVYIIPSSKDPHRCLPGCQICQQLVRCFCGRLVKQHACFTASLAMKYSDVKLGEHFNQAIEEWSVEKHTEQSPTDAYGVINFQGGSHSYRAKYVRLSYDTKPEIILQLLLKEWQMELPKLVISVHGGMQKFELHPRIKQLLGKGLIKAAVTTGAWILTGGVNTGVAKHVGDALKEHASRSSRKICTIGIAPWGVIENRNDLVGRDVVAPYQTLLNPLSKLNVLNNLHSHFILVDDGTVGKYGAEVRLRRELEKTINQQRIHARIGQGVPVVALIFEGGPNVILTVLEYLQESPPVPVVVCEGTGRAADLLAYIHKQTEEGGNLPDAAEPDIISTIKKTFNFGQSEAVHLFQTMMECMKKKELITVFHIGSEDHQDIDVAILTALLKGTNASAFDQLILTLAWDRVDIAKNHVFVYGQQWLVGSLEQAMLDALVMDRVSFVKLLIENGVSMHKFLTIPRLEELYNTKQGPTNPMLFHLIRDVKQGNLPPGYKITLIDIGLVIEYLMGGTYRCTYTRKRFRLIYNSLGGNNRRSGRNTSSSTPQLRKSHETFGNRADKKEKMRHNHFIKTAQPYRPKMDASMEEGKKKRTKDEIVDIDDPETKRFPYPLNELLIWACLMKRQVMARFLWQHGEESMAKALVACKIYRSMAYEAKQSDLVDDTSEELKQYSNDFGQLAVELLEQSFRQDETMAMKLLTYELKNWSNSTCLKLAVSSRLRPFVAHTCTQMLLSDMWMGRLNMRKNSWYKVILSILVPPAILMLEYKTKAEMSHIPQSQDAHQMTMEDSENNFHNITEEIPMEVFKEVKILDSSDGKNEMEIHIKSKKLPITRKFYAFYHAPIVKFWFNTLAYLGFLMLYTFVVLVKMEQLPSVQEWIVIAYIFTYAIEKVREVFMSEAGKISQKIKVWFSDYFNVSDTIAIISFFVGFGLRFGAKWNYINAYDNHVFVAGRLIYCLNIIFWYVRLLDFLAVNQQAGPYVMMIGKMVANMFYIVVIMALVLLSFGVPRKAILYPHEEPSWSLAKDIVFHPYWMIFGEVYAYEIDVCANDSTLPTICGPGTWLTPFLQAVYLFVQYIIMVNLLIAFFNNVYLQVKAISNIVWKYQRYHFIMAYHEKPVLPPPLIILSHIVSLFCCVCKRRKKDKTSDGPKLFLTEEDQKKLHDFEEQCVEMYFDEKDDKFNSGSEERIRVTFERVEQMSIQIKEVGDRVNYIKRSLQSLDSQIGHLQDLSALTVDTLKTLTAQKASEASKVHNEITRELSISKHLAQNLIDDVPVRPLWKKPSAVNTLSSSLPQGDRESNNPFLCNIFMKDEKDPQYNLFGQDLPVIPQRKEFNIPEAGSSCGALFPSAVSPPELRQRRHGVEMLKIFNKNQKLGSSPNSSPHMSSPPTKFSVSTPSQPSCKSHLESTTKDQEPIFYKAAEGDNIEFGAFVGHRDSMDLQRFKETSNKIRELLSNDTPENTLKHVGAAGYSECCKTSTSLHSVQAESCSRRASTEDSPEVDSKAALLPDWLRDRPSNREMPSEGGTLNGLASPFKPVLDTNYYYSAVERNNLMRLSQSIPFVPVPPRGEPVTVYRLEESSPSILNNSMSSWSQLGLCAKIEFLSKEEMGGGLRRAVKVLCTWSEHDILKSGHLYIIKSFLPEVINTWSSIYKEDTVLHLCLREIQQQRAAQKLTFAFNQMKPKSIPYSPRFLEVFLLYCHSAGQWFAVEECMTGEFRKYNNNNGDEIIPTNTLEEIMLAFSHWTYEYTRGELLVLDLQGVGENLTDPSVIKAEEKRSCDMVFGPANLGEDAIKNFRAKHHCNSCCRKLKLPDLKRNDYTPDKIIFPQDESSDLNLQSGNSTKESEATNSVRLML
Chain of TRPM8 (Q7Z2W7 whole entry, species assumed): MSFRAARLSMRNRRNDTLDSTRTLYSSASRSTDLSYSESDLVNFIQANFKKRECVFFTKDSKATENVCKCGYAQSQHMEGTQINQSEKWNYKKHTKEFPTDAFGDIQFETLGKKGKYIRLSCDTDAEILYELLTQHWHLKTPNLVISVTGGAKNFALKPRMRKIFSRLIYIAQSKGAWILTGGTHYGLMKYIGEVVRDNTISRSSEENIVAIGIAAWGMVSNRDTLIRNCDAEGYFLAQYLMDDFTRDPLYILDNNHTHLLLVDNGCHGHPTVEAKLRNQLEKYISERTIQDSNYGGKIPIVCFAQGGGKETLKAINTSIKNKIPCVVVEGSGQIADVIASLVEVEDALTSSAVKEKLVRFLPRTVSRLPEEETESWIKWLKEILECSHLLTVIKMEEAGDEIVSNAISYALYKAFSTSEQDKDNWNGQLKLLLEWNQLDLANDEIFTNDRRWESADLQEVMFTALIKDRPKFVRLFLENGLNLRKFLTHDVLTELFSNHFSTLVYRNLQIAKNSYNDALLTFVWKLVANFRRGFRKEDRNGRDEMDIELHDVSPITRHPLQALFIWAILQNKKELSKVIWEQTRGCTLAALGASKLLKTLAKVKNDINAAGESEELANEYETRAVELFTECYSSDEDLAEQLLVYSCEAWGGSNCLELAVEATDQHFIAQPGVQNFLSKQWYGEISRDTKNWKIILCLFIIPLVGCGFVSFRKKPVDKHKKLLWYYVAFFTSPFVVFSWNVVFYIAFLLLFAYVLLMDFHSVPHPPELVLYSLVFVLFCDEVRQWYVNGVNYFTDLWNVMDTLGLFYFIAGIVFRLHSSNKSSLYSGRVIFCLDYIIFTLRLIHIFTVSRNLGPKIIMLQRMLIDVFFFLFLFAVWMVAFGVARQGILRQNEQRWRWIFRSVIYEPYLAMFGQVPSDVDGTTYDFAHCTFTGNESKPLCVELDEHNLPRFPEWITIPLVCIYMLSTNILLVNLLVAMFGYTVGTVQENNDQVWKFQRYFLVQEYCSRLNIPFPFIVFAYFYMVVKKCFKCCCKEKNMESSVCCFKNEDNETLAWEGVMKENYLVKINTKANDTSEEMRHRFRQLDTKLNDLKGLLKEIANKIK

SMILES	Effect on TRPL-mediated current (TRPL channels; S2 cells)	TRPL Activation/Inhibition (TRPL channels)	Effect on TRPM7-mediated current (TRPM7 [1])	TRPV3 activation (TRPV3)	Reversibility of effect on TRPL channel (TRPL channels; S2 cells)	also measured
CC(C)[C@@H]1CC[C@@H](C)C[C@H]1O [Compound X, 2-Isopropyl-5-methylcyclohexanol]	large decrease in the TRPL-dependent current	Inhibition	inhibit TRPM7	–	–	IC50 (TRPL channels): 1810 ± 130 µM
Cc1ccc(C(C)C)c(O)c1 [Compound XIV, 2-Isopropyl-5-methylphenol]	inhibited TRPL; also recorded: large decrease in the TRPL-dependent current	Inhibition	–	activate TRPV3	–	–
CC1(C)C2CCC1(C)C(O)C2 [Compound XVII, endo-(1R)-1,7,7-Trimethylbicyclo[2.2.1]heptan-2-ol]	activated the TRPL channel; also recorded: activated the TRPL-mediated current	Activation	inhibit TRPM7	believed to activate TRPV3	completely reversible rapid activation	Effect on current when TRPL channels were not expressed (control) (TRPL channels): no effect
C=CCc1ccc(O)c(OC)c1 [Compound XIII, 2-Methoxy-4-(2-propenyl)phenol]	inhibited TRPL; also recorded: large decrease in the TRPL-dependent current	Inhibition	–	activate TRPV3	–	–
O=C(O)/C=C/c1ccc(O)c(O)c1 [Compound XV, 3,4-Dihydroxycinnamic acid]	did not block TRPL	No effect	–	–	–	–
Cc1ccc(C(C)C)cc1O [Compound IX, 5-Isopropyl-2-methylphenol]	Large suppression of the current; also recorded: large decrease in the TRPL-dependent current	Inhibition	Large and dose-dependent suppression of the current; also recorded: dramatic decrease in the TRPM7 mediated current	believed to activate TRPV3	reversibly blocked	Effect on current when TRPL channels were not expressed (control) (TRPL channels): no effect; Effect on vesicle release in TRPM7-GFP-expressing neurons (TRPM7 [2]; 30 APs@1 Hz): significantly decreased vesicle release; ΔF median of boutons after compound application (TRPM7 [2]; TRPM7-GFP-expressing neurons, 73 before): 75 arbitrary units; Number of FM-detectable boutons after compound application (TRPM7 [2]; TRPM7-GFP-expressing neurons, 578 before): 318; ΔF median of boutons after compound application (TRPM7 [3]; control neurons, 88 before): 87 arbitrary units; Number of FM-detectable boutons after compound application (TRPM7 [3]; control neurons, 764 before): 845; Effect on presynaptic activity in control neurons (TRPM7 [3]; neurons lacking TRPM7-GFP): did not affect presynaptic activity; Effect on vesicle release in control neurons (TRPM7 [3]; neurons lacking TRPM7-GFP): did not alter vesicle release; inhibition at 500 µM (TRPM7 [4]): 47 ± 3%; Effect on light-induced current (LIC) of WT flies, native TRP (TRP): inhibited LIC of WT flies; Effect on light-induced current (LIC) amplitude, native TRPL (native TRPL channels): dramatically reduced LIC amplitude; also recorded: inhibits the native TRPL channels; Reversibility of TRPM7 block (TRPM7 [1]; HEK cells): reversibly blocked activity; Effect in mock-transfected HEK293 cells (TRPM7 not expressed) (TRPM7 [1]; control): no effect was observed; Effect on TRPM8 (TRPM8): only a minimal effect on TRPM8; NSS recovery after closed head injury vs saline (closed head injury): NSS scores dropped significantly more; also recorded: significant protective effect from brain damage
CC12CCC(CC1=O)C2(C)C (centres unmarked) [Compound XI, 1,7,7-Trimethylbicyclo[2.2.1]heptan-2-one]	activated the TRPL channel	Activation	–	believed to activate TRPV3	–	–
C=C(C)[C@@H]1CC=C(C)C(O)C1 (stereo partly drawn) [Compound XVI, (5R)-5-Isopropenyl-2-methyl-2-cyclohexenol]	large decrease in the TRPL-dependent current	Inhibition	–	–	–	IC50 (TRPL channels): 4220 ± 400 µM
O=C/C=C/c1ccccc1 [Compound XII, trans-3-Phenyl-2-propenal]	inhibited TRPL activity; also recorded: decreased the TRPL-mediated current	Inhibition	inhibit TRPM7	–	reversible	IC50 (TRPL channels; read-out: IC50 of TRPL inhibition, S2 cells, whole-cell patch clamp): 1600 ± 300 µM; TRPA1 activation (TRPA1): activated
